Assay results as given in patent publication EP0968998A1, “Cosmetic compositions, ceramide analogues with anti-elastase activity and process for their preparation” (ELF ATOCHEM S.A., priority 1998, dated 2000).

Tested on: stratum corneum
Assay: Skin barrier improvement: transepidermal (insensible) water loss (PIE), Servomed evaporimeter, cream applied to inner forearm
Type: in vivo, volontaires sains ayant une peau sèche
Settings: cream with 0,5 % (ex. 7, témoins), 1 % (ex. 4, 8), 5 % (ex. 6)
Text: Les exemples qui suivent permettent d'illustrer l'invention. […] Les valeurs sont exprimées en nombre d'onde par centimètre. - Résonance magnétique nucléaire (RMN) Les spectres sont réalisés au moyen d'un appareil BRUCKER DRX 500, à 500 MHz (^1H) et 125 MHz (^13C) dans le DMSO-d6. La calibration de l'appareil est effectuée au moyen de DMSO. Les déplacements chimiques sont exprimés en ppm. […] On utilise le N-succinyl-(Ala)3-p-nitroanilide en solution dans le tétrahydrofurane et une solution d'élastase à 100 mg/ml dans un mélange de glycérol et de tampon acétate de sodium (50/50; v/v), pH5. L'activité de l'enzyme est mesurée à 37°C dans 100 mM de tampon Tris-HCI, pH8 contenant 0,01 % de Triton X-100 (volume/volume) et 0,02 % d'azide de sodium (poids/volume). Le céramide à tester, solubilisé dans le tétrahydrofurane (concentration en THF = 0,5 % en volume) est préincubé en présence de l'enzyme (0,05 mg/ml) dans le tampon pendant 5 minutes à 37°C. On ajoute le N-succinyl-(Ala)3-p-nitroanilide (concentration finale : 250 µM) et on mesure la libération de la p-nitroaniline dans une cuve en quartz par spectrophotométrie à 410 nm. La capacité inhibitrice du céramide est exprimée en pourcentage d'inhibition (% I) selon la relation : %I = (1 -(Vi)/(Vo))×100 [formula] dans laquelle Vi et Vo sont les vitesses d'apparition de la p-nitroaniline en présence et en absence d'inhibiteur respectivement. - Mesure de l'amélioration de la barrière cutanée a) mesure de la Perte Insensible en Eau (PIE) La mesure de la PIE permet de quantifier la très faible quantité d'eau qui diffuse passivement à travers le stratum corneum. Ce paramètre représente un très bon index de la fonction barrière du stratum corneum. Cette méthode est surtout utilisée pour contrôler l'efficacité de formules cosmétiques qui, contenant certains types de lipides sont capables de diminuer la PIE et, en conséquence, d'empêcher la déshydratation du stratum corneum. La sonde est laissée en contact de la peau pendant 2 minutes environ de façon à atteindre une position d'équilibre. PIE = D'(dP)/(dx)(gradient de pression de vapeur) [formula] Les valeurs sont exprimées en g/m^2/heure et permettent de calculer un delta de PIE = PIE (peau traitée) - PIE (peau témoin). L'appareil utilisé est un Evaporimètre EPI de Servomed. Les mesures sont effectuées sur deux groupes de 15 volontaires sains ayant une peau sèche, avant l'application du produit (t=0) et après l'application (t=0,5 heure, 1 heure, 3 heures et 6 heures) sur la face interne des deux avant-bras. L'analogue de céramide selon l'invention ou le céramide témoin est incorporé dans une crème ayant la composition suivante (en % en poids) :
La teneur en analogue de céramide dans la crème est égale à 0,5 % (exemple 7), 1 % (exemples 4 et 8) et 5 % (exemple 6), et celle des céramides témoins (a) et (b) est égale à 0,5 %. La diminution des valeurs de PIE signifie une amélioration de la qualité de la barrière cutanée qui traduit un meilleur pouvoir retentionnel de l'eau au niveau de la couche cornée et donc une meilleure hydratation. b) hydratation cutanée L'eau peut être considérée comme un dipôle électrique capable de conduire l'électricité. Le transport d'électricité dans un champ donné est proportionnel à la quantité d'eau présente dans le stratum corneum. Plus une peau est riche en eau et plus le courant électrique passe rapidement entre 2 électrodes. Il existe donc un lien entre l'hydratation du stratum corneum et les modifications des propriétés électriques. Les mesures de capacitance, liée à la constante diélectrique de la peau, sont réalisées par le Cornéomètre Courage+Khazaka CM 200, dont la sonde présente une surface de contact avec la peau de 49 mm^2; cette sonde est appliquée avec une pression constante sur la surface cutanée à mesurer, et l'indice d'hydratation directement proportionnel au taux hydrique de surface est instantané.

CCCCCCCCCCCCCCCCCC(=O)NC(CC)(CO)COC(=O)CCCCCCCCCCCCCCCCC (centres unmarked) [Exemple 4, 1-stéaroyl-2-éthyl-2-stéaroylamino-1,3-propanediol]
Perte Insensible en Eau (PIE) M±s (t=0,5 heure after application): 3,89±0,85 g/m^2/heure
Perte Insensible en Eau (PIE) M±s (t=0 heure (before application, baseline)): 4,52±0,79 g/m^2/heure
Perte Insensible en Eau (PIE) M±s (t=1 heure after application): 2,95±1,15 g/m^2/heure
Perte Insensible en Eau (PIE) M±s (t=3 heures after application): 4,30±0,97 g/m^2/heure
Perte Insensible en Eau (PIE) M±s (t=6 heures after application): 4,00±1,24 g/m^2/heure
